Laboratory results taken from PMC12494543, “Identification of ALKBH6 as a nucleotide demethylase with a distinct substrate preference” (The Journal of Biological Chemistry, 2025).

Tests used:
[1] = biological target: T1, ALKBH6 (Homo sapiens, UniProt Q3KRA9); test: Demethylation assay by HPLC analysis; type: biochemical; details: substrate 250 and 500 μM, 30 min
T1 construct: His-tag; made in house
Procedure: Following ALKBH6-mediated demethylation, NMPs and dNMPs were analyzed in an HPLC system (Shimadzu) equipped with a reversed-phase Shim-pack GIST C18 5 μm separation column (250 × 4.6 mm). For majority of the nucleotides including 1me-AMP, 1me-dAMP, 7me-dGMP, 6me-AMP, 7me-GMP, 3me-dCMP, dAMP, dCMP AMP, GMP, the column was equilibrated with mobile phase A (50 mM ammonium acetate) and mobile phase B (50 mM ammonium acetate, 50% of acetonitrile and 0.1% trifluoroacetic acid. For dGMP, different mobile phase A (50 mM ammonium acetate, 3% methanol, pH-5.0) and mobile phase B (methanol) were used. The peaks were identified based on the elution time of the standards (Fig. S9) purchased from Sigma and further analyzed using LabSolutions software (www.shimadzu.com) and analyzed by mass spectrometry.

[2] = biological target: T1, ALKBH6; test: Intrinsic tryptophan fluorescence quenching (Stern-Volmer); type: binding; details: WT ALKBH6, 2OG omitted
Procedure: All tryptophan fluorescence spectroscopy experiments were performed using a multimode plate reader (PerkinElmer). The excitation and emission wavelengths were fixed at 280 nm and 356 nm, respectively. To measure ALKBH6–ligand interactions, recombinant ALKBH6 (500 nM), and increasing concentrations of ligand (0–80 μM) were equilibrated in binding buffer (50 mM Hepes, pH 7.6, 300 mM KCl) for 1 h. For Stern–Volmer quenching analysis, the F0/F = 1 + KSV(L) formula was used, where, KSV is the Stern–Volmer constant, L is the concentration of the quencher, F0 and F represent the steady-state fluorescence intensities in the absence and presence of quencher, respectively. All the data were calculated with best-fit parameter values and 95% confidence intervals in GraphPad Prism software.

[3] = biological target: T1, ALKBH6; test: FDH-coupled formaldehyde release demethylation assay; type: biochemical; details: for formaldehyde release / demethylation by ALKBH6: FDH-coupled assay, tested as substrate; for inhibition of ALKBH6-mediated demethylation: me-dNMPs as substrate
Procedure: NMPs including 1meAMP (Jena Bioscience, NU-1029-1,) 7meGMP (Jena Bioscience, NU-1135S), 6me-AMP (Sigma, M2780) were purchased. N-methylated deoxy-NMPs were prepared by methylating chemically synthesized 30-mer oligonucleotide containing either dA, dG, dC, or dT by MMS (5%, v/v) (0.59 M) MMS (Sigma, 129925) and purified as described before ([17]). The oligonucleotides were digested with nuclease P1 (NEB) at 37 °C for 4 h to produce deoxy-NMPs. After heat inactivating the nuclease, dNMPs were purified by HPLC and used for the demethylation reaction. N-methylated NMPs were purified similarly, using RNA as the starting material. For the demethylation reaction, ALKBH6 (1 μM) and me-dNMPs (1 mM) were mixed in the dioxygenase reaction buffer and incubated at 37 °C for 30 min. Formaldehyde release was detected by FDH-coupled DNA repair assay as described before ([32], [33]). Briefly, 1 mM NAD+ and 0.01 U FDH were added to the dioxygenase reaction buffer containing methylated nucleotide and ALKBH6. NADH generated was detected by the characteristic absorption peak (340 nm) using a 96-well multimode reader (Synergy, Biotek Instrument). Formaldehyde production was quantified from the standard curve and the initial velocities were determined using various substrate concentrations. The results were plotted and analyzed using GraphPad Prism.

[4] = tested on: AlkB; details: AlkB substrate; cited from earlier work
[5] = tested on: MTH1; set-up: method as in PMID 30304478; details: MTH1 substrate; cited from earlier work
[6] = substrate of ALKBH6, Michaelis-Menten

T1 sequence (Q3KRA9 whole entry): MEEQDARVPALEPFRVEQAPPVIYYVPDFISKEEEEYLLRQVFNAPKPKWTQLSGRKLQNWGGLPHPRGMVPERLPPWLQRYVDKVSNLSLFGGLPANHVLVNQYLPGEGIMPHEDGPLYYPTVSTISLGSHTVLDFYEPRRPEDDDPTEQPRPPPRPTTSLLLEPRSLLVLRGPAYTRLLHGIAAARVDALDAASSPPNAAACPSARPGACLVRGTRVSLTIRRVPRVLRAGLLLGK

SMILES | demethylation by ALKBH6 (HPLC) [1] | formaldehyde release / demethylation by ALKBH6 [3] | further results
C[n+]1cnc2c(ncn2[C@@H]2O[C@H](COP(=O)(O)O)[C@@H](O)[C@H]2O)c1N [1me-AMP, N-1-methyl-adenosine monophosphate] | converted to AMP | – | Stern-Volmer constant (Ksv) [2]: 0.011 ± 0.002 µM⁻¹
Cn1c(N)nc2c(ncn2[C@@H]2O[C@H](COP(=O)(O)OP(=O)(O)OP(=O)(O)O)[C@@H](O)[C@H]2O)c1=O [1me-GTP] | – | – | Stern-Volmer constant (Ksv) [2]: 0.004 µM⁻¹
Cn1cnc2c(ncn2[C@@H]2O[C@H](CO)[C@@H](O)[C@H]2O)c1=N [1me-adenosine, reference compound] | – | could not demethylate | –
Cn1cnc2c(ncn2[C@H]2C[C@H](O)[C@@H](COP(=O)(O)O)O2)c1=N [1me-dAMP] | efficiently demethylate | Formaldehyde release was observed | Km [4]: 2 µM; kcat [4]: 0.07 s⁻¹
O=C(O)CCC(O)C(=O)O (stereo not shown) [2HG, 2-hydroxyglutarate, reference compound] | – | – | inhibition of ALKBH6-mediated demethylation [3]: inhibited
Cn1c(=N)ccn([C@H]2C[C@H](O)[C@@H](COP(=O)(O)O)O2)c1=O [3me-dCMP] | efficiently demethylate | Formaldehyde release was observed | –
CNc1ncnc2c1ncn2[C@@H]1O[C@H](COP(=O)(O)O)[C@@H](O)[C@H]1O [6me-AMP] | did not observe any demethylation | did not observe any demethylation | –
Cn1c[n+]([C@@H]2O[C@H](COP(=O)([O-])OP(=O)(O)OP(=O)(O)O)[C@@H](O)[C@H]2O)c2nc(N)[nH]c(=O)c21 [7me-GTP] | – | comparatively less | Stern-Volmer constant (Ksv) [2]: 0.007 µM⁻¹
Cn1c[n+]([C@@H]2O[C@H](CO)[C@@H](O)[C@H]2O)c2nc(N)[nH]c(=O)c21 [7me-guanosine, reference compound] | – | could not demethylate | –
COc1nc(N)nc2c1ncn2[C@H]1C[C@H](O)[C@@H](COP(=O)(O)OP(=O)(O)OP(=O)(O)O)O1 [O6-methyl-dGTP] | – | – | Km [5]: 13.2 µM; kcat [5]: 8.3 s⁻¹
COc1nc(N)nc2c1ncn2[C@@H]1O[C@H](COP(=O)(O)OP(=O)(O)OP(=O)(O)O)[C@@H](O)[C@H]1O [O^6-methyl-GTP] | – | – | kcat [5]: 0.3 s⁻¹
O=C(O)CCC(=O)O [succinate, reference compound] | – | – | inhibition of ALKBH6-mediated demethylation [3]: inhibited

Further lines, with some results ahead:

demethylation by ALKBH6 (HPLC) [1] | formaldehyde release / demethylation by ALKBH6 [3] | SMILES | further results
– | comparatively less | Cn1cnc2c(ncn2[C@@H]2O[C@H](COP(=O)(O)OP(=O)(O)OP(=O)(O)O)[C@@H](O)[C@H]2O)c1=N [1me-ATP] | –
efficiently demethylate | Formaldehyde release was observed | C[n+]1cn([C@H]2C[C@H](O)[C@@H](COP(=O)(O)O)O2)c2nc(N)[nH]c(=O)c21 [7me-dGMP] | Km [3, 6]: 1.03 µM; kcat [3, 6]: 0.18 s⁻¹
